Data on 1 molecule can be found in US8686016B2, “Schweinfurthins and uses thereof” (The United States of America, as represented by the …, priority 2009, dated 2014).

The test system of assay [1] is SNB-75. Nature of the assay: NCI60 cell line response to SA, SNB-75. It counts as cell-based, human. The conditions noted are these: SNB-75, doubling time 62.8 hours.
For assay [2], the system named is SF-268. Nature of the assay: NCI60 cell line response to SA, SF-268. It counts as cell-based, human. As to conditions: SF-268, doubling time 33.1 hours.
Assay [3] has as its system A549 human lung carcinoma cells. Nature of the assay: Clonogenic assay, A549. The assay is classed as cell-based. The conditions noted are these: 18 hrs treatment, colonies after one week. The method, then: Clonogenic Assays: Monolayers of cells were treated for 18 hrs with SA, and then harvested, counted, and seeded to 35 mm dishes at a density of 1000 cells per dish. After one week, macroscopic colonies were stained with crystal violet (Sigma, St. Louis, Mo., USA) and counted.

Assay [4] has as its system KR158 astrocytoma cells (Nf1−/−; Trp53−/−). Description: XTT cell proliferation assay, KR158. The assay is classed as cell-based, mouse. As for the experimental part: (§1) XTT Cell Proliferation Assay: Cells were seeded into 96-well plates at a density of 2,000 cells/well and allowed to reattach overnight. Cells were treated with SA, synthetic analogs, camptothecin (NCI Chemotherapeutics Repository, Md., USA), or DMSO control at the indicated concentrations continuously for 48 hours followed by assay in the 96-well plate for relative viable cell number using the dye […] (XTT) and a Wallac-Victor 2 plate reader (Perkin-Elmer, Waltham, Mass., USA). Absorbance was determined at 450 nm with 650 nm as a reference reading. Primary astrocytes were additionally assayed at a 96 hour time point.

Assay [5] deals with A549 cells. Nature of the assay: XTT cell proliferation assay, A549. The assay is classed as cell-based, human. The conditions noted are these: 48 hours. The method, then: as §1
The subject of assay [6] is primary astrocytes from wt, Nf1−/+, and NPcis mice. Description: XTT cell proliferation assay, primary astrocytes. It counts as cell-based, mouse. As to conditions: for inhibition of proliferation: XTT. The method, then: as §1
Cell culture: Primary astrocytes were prepared as described previously (Hawes et al., J. Biomol. Screen, 2008, 13:795-803) from 1 day old neonatal brains collected from wt, Nf1−/+, and Nf1−/+; Trp53−/+ cis mice.

Assay [7] concerns KR158 cells transduced with empty vector (PMSCV). Nature of the assay: XTT cell proliferation assay, KR158 empty vector. As to conditions: two-day cell proliferation assay. It counts as cell-based, mouse. The method, then: as §1
(§2) Constructs and Transfections: NF1-GRD retroviral constructs were obtained from Indiana University. Cells transduced with the NF1-GRD construct or PMSCV empty vector control as previously described (Hiatt et al., J. Biol. Chem., 2001, 276:7240-5) were maintained in 1 μg/mL puromycin (Sigma).

The test system of assay [8] is KR158 cells stably transfected with GFP-actin. Nature of the assay: Cell morphology / actin confocal microscopy, KR158 GFP-actin. The assay is classed as cell-based, mouse. The conditions noted are these: 16-18 hrs treatment.
Description: Doxorubicin studies: KR158 stably transfected with GFP-actin were treated with 25 and 50 μM doxorubicin for 18 hrs continuously.
Cell Morphology Assays and Confocal Microscopy: To assay cytoskeleton morphology, KR158 cells, mouse primary astrocytes, KR158 clones expressing the NF1-GRD constructs, K14553 cells, and A549 were seeded to cover slips and allowed to reattach overnight. Cells were treated for 18 hours with either the indicated concentrations of SA, or the vehicle control DMSO. The cover slips were fixed in 3.7% paraformaldehyde, permeablized in 0.1% Triton-X100, and stained with Alexa Fluor 488-phalloidin (Invitrogen, Carlsbad, Calif., USA) to detect actin and cells were mounted in Prolong Antifade containing DAPI (Invitrogen) to stain nuclei. The cells were imaged on a LSM510 confocal microscope (Carl Zeiss Inc., Jena, Germany). […] KR158 GFP-actin transfected cells were seeded to 8-well chamber slides, allowed to reattach, and then treated with indicated concentrations of SA. Actin structures were monitored continuously over a 16 hr period using confocal microscopy equipped with a growth chamber (37° C., humidified atmosphere and 5% CO2). To compare SA to Rho/Rock inhibitors, KR158 GFP-actin cells were treated with SA or with the Rho pathway inhibitors Rock inhibitor Y-27632 (Sigma, St. Louis, Mo., USA), and the Rho inhibitor C3 transferase (Cytoskeleton, Inc., Denver, Colo., USA, cat# CT04) for 16 hrs, and then examined by confocal microscopy.
In assay [9] the test system is primary astrocytes. Description: Cell morphology / actin confocal microscopy, primary astrocytes. The assay is classed as cell-based, mouse. The conditions noted are these: 18 hours treatment. As for the experimental part: (§3) Cell Morphology Assays and Confocal Microscopy: To assay cytoskeleton morphology, KR158 cells, mouse primary astrocytes, KR158 clones expressing the NF1-GRD constructs, K14553 cells, and A549 were seeded to cover slips and allowed to reattach overnight. Cells were treated for 18 hours with either the indicated concentrations of SA, or the vehicle control DMSO. The cover slips were fixed in 3.7% paraformaldehyde, permeablized in 0.1% Triton-X100, and stained with Alexa Fluor 488-phalloidin (Invitrogen, Carlsbad, Calif., USA) to detect actin and cells were mounted in Prolong Antifade containing DAPI (Invitrogen) to stain nuclei. The cells were imaged on a LSM510 confocal microscope (Carl Zeiss Inc., Jena, Germany). For phospho-myosin light chain 2 (MLC) detection, cells were seeded to coverslips as described above. Cells were serum starved in 0.5% FBS and SA or DMSO vehicle control for 18 hours, and then pulsed with 10 ng/mL EGF (Invitrogen) for 5 min. […] Actin structures were monitored continuously over a 16 hr period using confocal microscopy equipped with a growth chamber (37° C., humidified atmosphere and 5% CO2). […]

The test system of assay [10] is NF1-GRD expressing KR158 clones. Nature of the assay: Cell morphology / actin confocal microscopy, NF1-GRD KR158. It counts as cell-based, mouse. As for the experimental part: as §2
as §3, with “above.” for “above. Cells were serum starved in 0.5% FBS and SA or DMSO vehicle control for 18 hours, and then pulsed with 10 ng/mL EGF (Invitrogen) for 5 min.”

Assay [11] concerns empty vector transduced KR158 cells. Nature of the assay: Cell morphology / actin confocal microscopy, empty vector KR158. The assay is classed as cell-based, mouse. The method, then:
as §2
as §3, with “above.” for “above. Cells were serum starved in 0.5% FBS and SA or DMSO vehicle control for 18 hours, and then pulsed with 10 ng/mL EGF (Invitrogen) for 5 min.”

The subject of assay [12] is MPNST cell lines derived from the NPcis mouse. Nature of the assay: Cell morphology / actin, MPNST cell lines. It counts as cell-based. As for the experimental part:
as §3

The structures appear in SMILES notation. Entries after “also recorded” stand apart in the source; their conditions may differ.

As to `CC(C)=CCC/C(C)=C/Cc1c(O)cc(/C=C/c2cc(O)c3c(c2)C[C@@H]2C(C)(C)[C@H](O)[C@H](O)C[C@@]2(C)O3)cc1O` [SA, Schweinfurthin A], the logGI50 was −7.82 in [1] and −5.62 in assay [2]. For the same molecule, the colony growth entry in assay [3] is “not inhibited; also recorded: formed colonies up to the highest concentration of SA tested”. The “inhibition of proliferation (percent viability versus control)” value in assay [4] (48 hours, XTT) is “highly active; also recorded: sensitive; also recorded: inhibited both the KR158 and SF-295 cell lines in a dose dependent manner”; in [5] it was “does not inhibit; also recorded: no apparent effect”. For the same molecule, in assay [4] (Mus musculus, KR158, Nf1-mutant astrocytoma cells), the GI50 came to 10 nM. Moreover, the inhibition of proliferation result was “does not inhibit; also recorded: are not; also recorded: resistant” in [6] (48 hours), “resistant” in assay [6] (96 hrs continuous treatment) and “highly active” in assay [7]. The same molecule had a growth inhibition in assay [6] (SA concentrations several log-fold higher than the GI50 for KR158) of no more than 40%. Besides, the “inhibition of Nf1 heterozygous cells” value in [6] (at concentrations of 1 μM) is on record as “no inhibition”. For the same molecule, the “F-actin staining / stress fibers” value in [8] was “dramatic loss of F-actin staining”. In [9], the “actin organization, phalloidin staining” value is “no visible changes in actin organization”. Further, in [10], the actin structures entry was “did not change”. Moreover, the F-actin structures entry in assay [11] is “same reorganization of F-actin structures”. In addition, the actin cytoskeleton entry in assay [12] is on record as “loss of stress fibers”.
